Experiments:
Test in all cases: relative viability (nuclei count vs DMSO), 5 days (fraction); higher = more cells survive
NCI-H1755 = test system: NCI-H1755
How it was run: (§1)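 Five library-drug doses in √10 steps were combined with a fixed anchor-drug dose, or a single drug was given alone, by pin tool to lung cancer cell lines in 1536-well plates the day after seeding. Nuclei were stained and counted after 5 days. Relative viability is the nuclei count in treated wells over that in vehicle wells, taken as the median of duplicate plates.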

NCI-H1915 = test system: NCI-H1915
How it was run: as §1

NCI-H1975 = test system: NCI-H1975
How it was run: as §1

NCI-H1993 = test system: NCI-H1993
How it was run: as §1

NCI-H2023 = test system: NCI-H2023
How it was run: as §1

NCI-H2085 = test system: NCI-H2085
How it was run: as §1

NCI-H2126 = test system: NCI-H2126
How it was run: as §1

NCI-H3122 = test system: NCI-H3122
How it was run: as §1

NCI-H322M = test system: NCI-H322M
How it was run: as §1

NCI-H358 = test system: NCI-H358
How it was run: as §1

NCI-H441 = test system: NCI-H441
How it was run: as §1

UMC-11 = test system: UMC-11
How it was run: as §1

For `NC(=O)Nc1cc(-c2cccc(F)c2)sc1C(=O)N[C@H]1CCCNC1` [AZD7762] + N=C(N)NC(=N)NCCc1ccccc1 [Phenformin] (partner 250 µM), which relative viability (NCI-H1755; first compound 0.1 µM) is on record?
The relative viability was 0.656.

And the relative viability (NCI-H1755; first compound 0.3162 µM)?
The relative viability was 0.596.

What about the relative viability (NCI-H1755; first compound 1 µM) of the same molecule?
Its relative viability is 0.423.

And the relative viability (NCI-H1915; first compound 0.01 µM)?
Its relative viability is 0.373.

What about the relative viability (NCI-H1915; first compound 0.03162 µM) of the same molecule?
Its relative viability is 0.375.

What about the relative viability (NCI-H1915; first compound 0.1 µM) of the same molecule?
Its relative viability is 0.368.

What about the relative viability (NCI-H1915; first compound 0.3162 µM) of the same molecule?
The relative viability was 0.362.

What about the relative viability (NCI-H1915; first compound 1 µM) of the same molecule?
Its relative viability is 0.349.

What about the relative viability (NCI-H1975; first compound 0.01 µM) of the same molecule?
Its relative viability is 0.425.

And the relative viability (NCI-H1975; first compound 0.03162 µM)?
The relative viability was 0.411.

And the relative viability (NCI-H1975; first compound 0.1 µM)?
Its relative viability is 0.417.

And the relative viability (NCI-H1975; first compound 0.3162 µM)?
The relative viability was 0.386.

And the relative viability (NCI-H1975; first compound 1 µM)?
Its relative viability is 0.328.

What about the relative viability (NCI-H1993; first compound 0.01 µM) of the same molecule?
Its relative viability is 0.553.

And the relative viability (NCI-H1993; first compound 0.03162 µM)?
Its relative viability is 0.504.

And the relative viability (NCI-H1993; first compound 0.1 µM)?
Its relative viability is 0.53.

What about the relative viability (NCI-H1993; first compound 0.3162 µM) of the same molecule?
Its relative viability is 0.428.

And the relative viability (NCI-H1993; first compound 1 µM)?
Its relative viability is 0.502.

What about the relative viability (NCI-H2023; first compound 0.01 µM) of the same molecule?
Its relative viability is 0.446.

What about the relative viability (NCI-H2023; first compound 0.03162 µM) of the same molecule?
The relative viability was 0.394.

And the relative viability (NCI-H2023; first compound 0.1 µM)?
The relative viability was 0.255.

What about the relative viability (NCI-H2023; first compound 0.3162 µM) of the same molecule?
The relative viability was 0.171.

What about the relative viability (NCI-H2023; first compound 1 µM) of the same molecule?
The relative viability was 0.1.

What about the relative viability (NCI-H2085; first compound 0.01 µM) of the same molecule?
The relative viability was 0.647.

What about the relative viability (NCI-H2085; first compound 0.03162 µM) of the same molecule?
The relative viability was 0.806.

And the relative viability (NCI-H2085; first compound 0.1 µM)?
The relative viability was 0.811.

And the relative viability (NCI-H2085; first compound 0.3162 µM)?
The relative viability was 0.685.

And the relative viability (NCI-H2085; first compound 1 µM)?
Its relative viability is 0.496.

What about the relative viability (NCI-H2126; first compound 0.01 µM) of the same molecule?
The relative viability was 0.513.

And the relative viability (NCI-H2126; first compound 0.03162 µM)?
Its relative viability is 0.593.

And the relative viability (NCI-H2126; first compound 0.1 µM)?
The relative viability was 0.545.

And the relative viability (NCI-H2126; first compound 0.3162 µM)?
Its relative viability is 0.536.

What about the relative viability (NCI-H2126; first compound 1 µM) of the same molecule?
Its relative viability is 0.462.

And the relative viability (NCI-H3122; first compound 0.01 µM)?
The relative viability was 0.389.

And the relative viability (NCI-H3122; first compound 0.03162 µM)?
The relative viability was 0.412.

And the relative viability (NCI-H3122; first compound 0.1 µM)?
The relative viability was 0.416.

And the relative viability (NCI-H3122; first compound 0.3162 µM)?
The relative viability was 0.341.

What about the relative viability (NCI-H3122; first compound 1 µM) of the same molecule?
The relative viability was 0.317.

What about the relative viability (NCI-H322M; first compound 0.01 µM) of the same molecule?
The relative viability was 0.704.

And the relative viability (NCI-H322M; first compound 0.03162 µM)?
Its relative viability is 0.85.

And the relative viability (NCI-H322M; first compound 0.1 µM)?
The relative viability was 0.747.

And the relative viability (NCI-H322M; first compound 0.3162 µM)?
The relative viability was 0.36.

What about the relative viability (NCI-H322M; first compound 1 µM) of the same molecule?
The relative viability was 0.284.

What about the relative viability (NCI-H358; first compound 0.01 µM) of the same molecule?
The relative viability was 0.305.

And the relative viability (NCI-H358; first compound 0.03162 µM)?
The relative viability was 0.401.

And the relative viability (NCI-H358; first compound 0.1 µM)?
Its relative viability is 0.334.

What about the relative viability (NCI-H358; first compound 0.3162 µM) of the same molecule?
The relative viability was 0.242.

And the relative viability (NCI-H358; first compound 1 µM)?
Its relative viability is 0.185.

What about the relative viability (NCI-H441; first compound 0.01 µM) of the same molecule?
The relative viability was 1.05.

And the relative viability (NCI-H441; first compound 0.03162 µM)?
The relative viability was 0.732.

And the relative viability (NCI-H441; first compound 0.1 µM)?
The relative viability was 0.91.

What about the relative viability (NCI-H441; first compound 0.3162 µM) of the same molecule?
The relative viability was 1.04.

And the relative viability (NCI-H441; first compound 1 µM)?
Its relative viability is 0.618.

What about the relative viability (UMC-11; first compound 0.01 µM) of the same molecule?
The relative viability was 0.372.

What about the relative viability (UMC-11; first compound 0.03162 µM) of the same molecule?
Its relative viability is 0.322.

What about the relative viability (UMC-11; first compound 0.1 µM) of the same molecule?
The relative viability was 0.238.

And the relative viability (UMC-11; first compound 0.3162 µM)?
Its relative viability is 0.25.

What about the relative viability (UMC-11; first compound 1 µM) of the same molecule?
Its relative viability is 0.234.
